Where two headings read alike, the source gives them in different places.
Tests used:
Ba/F3 KIT mutant cells = assay: Ba/F3 mutant KIT Cell Proliferation Assays (resazurin); format: cell-based; conditions: Mus musculus, BaF3
In short: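 IC50 values come from resazurin fluorescence (ex 540, em 600) after 5 h dye exposure, added as a 440 μM solution. Cells were IL-3-independent Ba/F3 expressing mutant KIT from a lentiviral vector, puromycin-selected.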

GIST 430 cells = assay: GIST 430 Cell Proliferation Assay (resazurin); format: cell-based; conditions: Homo sapiens; GIST430 cell proliferation
In short: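 Five thousand cells per well were exposed to serially diluted compound in complete growth medium for 115 h at 37 degrees Celsius, 5% CO2. Resazurin was then added for a further 5 h, fluorescence read at 540 nm excitation/600 nm emission, and IC50 values calculated.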

c-KIT kinase (uKIT) = c-KIT kinase (uKIT) (Homo sapiens (Human), UniProt P10721); assay: Biochemical Assay for uKIT (coupled pyruvate kinase/lactate dehydrogenase assay); conditions: Inhibition of biochemical activity of uKIT kinase; 1 mM ATP
In short: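 IC50 from percent inhibition of reaction rate over 2-3 h, relative to no-compound and known-inhibitor controls. KIT enzyme (16 nM or 4.36 nM, two sequences) ran with 1 mM ATP and 0.7 mg/mL PE4Y in Tris pH 7.5, 30° C; ATP turnover coupled to NADH loss at 340 nm.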

[1] = Ba/F3 KIT AYdup mutant cell proliferation, read-out: AYdup IC50
[2] = Ba/F3 KIT AYdup-D816G mutant cell proliferation, read-out: AYdup-D816G IC50
[3] = Ba/F3 KIT AYdup-V654A mutant cell proliferation, read-out: AYdup-V654A IC50
[4] = Ba/F3 KIT exon11del-V654A mutant cell proliferation, read-out: exon11del-V654A IC50
[5] = Ba/F3 KIT exon11del-Y823D mutant cell proliferation, read-out: exon11del-Y823D IC50

Sequence of c-KIT kinase (uKIT) (P10721 other isoform, or with tags, fused parts or gaps): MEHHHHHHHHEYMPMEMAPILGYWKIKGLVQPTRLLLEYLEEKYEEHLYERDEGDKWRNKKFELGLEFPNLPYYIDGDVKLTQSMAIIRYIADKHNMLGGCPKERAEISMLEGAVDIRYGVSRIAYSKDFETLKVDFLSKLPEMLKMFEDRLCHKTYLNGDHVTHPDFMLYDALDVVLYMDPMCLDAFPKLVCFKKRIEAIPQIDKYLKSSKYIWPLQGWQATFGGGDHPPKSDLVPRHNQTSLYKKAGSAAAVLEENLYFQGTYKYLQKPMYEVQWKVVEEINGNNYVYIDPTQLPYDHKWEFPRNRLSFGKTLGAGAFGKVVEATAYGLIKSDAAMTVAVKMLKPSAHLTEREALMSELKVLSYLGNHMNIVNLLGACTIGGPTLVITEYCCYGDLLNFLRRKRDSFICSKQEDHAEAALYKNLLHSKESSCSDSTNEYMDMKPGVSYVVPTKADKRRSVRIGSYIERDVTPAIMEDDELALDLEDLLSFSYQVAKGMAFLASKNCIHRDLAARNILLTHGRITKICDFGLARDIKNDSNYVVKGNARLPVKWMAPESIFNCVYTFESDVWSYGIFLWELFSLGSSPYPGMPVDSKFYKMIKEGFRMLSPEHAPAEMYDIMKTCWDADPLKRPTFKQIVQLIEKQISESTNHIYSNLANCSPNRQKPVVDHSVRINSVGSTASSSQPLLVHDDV

Compound	IC50 (Ba/F3 KIT mutant cells; [1]) [µM]	IC50 (Ba/F3 KIT mutant cells; [2]) [µM]	IC50 (Ba/F3 KIT mutant cells; [3]) [µM]	IC50 (Ba/F3 KIT mutant cells; [4]) [µM]	IC50 (Ba/F3 KIT mutant cells; [5]) [µM]	IC50 (GIST 430 cells) [µM]	IC50 (c-KIT kinase (uKIT)) [µM]
CC(C)(C#N)CCNC(=O)Nc1ccc(Nc2ncnc3cc(OCCN4CCOCC4)cc(F)c23)cc1 [Example 104]	≤ 0.01	≤ 0.01	0.01 to 0.1	≤ 0.01	≤ 0.01	≤ 0.01	≤ 0.01
COCCOc1cc(F)c2c(Nc3ccc(NC(=O)NCCC(C)(C)C#N)c(F)c3)ncnc2c1 [Example 105]	–	–	0.01 to 0.1	≤ 0.01	0.1 to 1	≤ 0.01	≤ 0.01
COCCOc1cc(F)c2c(Nc3ccc(NC(=O)NCCCC(C)(C)F)cc3)ncnc2c1 [Example 106]	–	–	0.01 to 0.1	≤ 0.01	0.01 to 0.1	≤ 0.01	≤ 0.01
COCCOc1cc(F)c2c(Nc3ccc(NC(=O)CC(=O)NCCC(C)(C)OC)cc3)ncnc2c1 [Example 107]	–	–	0.1 to 1	0.01 to 0.1	> 1	0.1 to 1	0.01 to 0.1
COCCOc1cc(F)c2c(Nc3ccc(NC(=O)CC(=O)NCC4(C)CCOCC4)cc3)ncnc2c1 [Example 109]	–	–	0.1 to 1	0.01 to 0.1	> 1	0.01 to 0.1	0.01 to 0.1
COCCOc1cc(F)c2c(Nc3ccc(NC(=O)CC(=O)NCC4(C)CCCO4)cc3)ncnc2c1 (stereo not drawn) [Example 110]	–	–	0.1 to 1	0.01 to 0.1	> 1	0.01 to 0.1	0.01 to 0.1
COCCOc1cc(F)c2c(Nc3ccc(NC(=O)CC(=O)NCC4(C)CCC4)cc3)ncnc2c1 [Example 111]	≤ 0.01	0.01 to 0.1	0.01 to 0.1	≤ 0.01	0.01 to 0.1	≤ 0.01	≤ 0.01
COCCOc1cc(F)c2c(Nc3ccc(NC(=O)CC(=O)NC4CC(C)(C)C4)cc3)ncnc2c1 [Example 112]	≤ 0.01	0.01 to 0.1	0.01 to 0.1	≤ 0.01	0.01 to 0.1	≤ 0.01	0.01 to 0.1
COCCOc1cc(F)c2c(Nc3ccc(NC(=O)CC(=O)NC4CC(F)(F)C4)cc3)ncnc2c1 [Example 113]	–	–	0.01 to 0.1	0.01 to 0.1	0.1 to 1	0.01 to 0.1	0.01 to 0.1
COCCOc1cc(F)c2c(Nc3ccc(NC(=O)CC(=O)NC4CC5(COC5)C4)cc3)ncnc2c1 [Example 114]	–	–	0.1 to 1	0.1 to 1	> 1	0.1 to 1	0.1 to 1
COCCOc1cc(F)c2c(Nc3ccc(NC(=O)CC(=O)NCC4CC(F)(F)C4)cc3)ncnc2c1 [Example 115]	–	–	0.01 to 0.1	0.01 to 0.1	0.1 to 1	0.01 to 0.1	0.01 to 0.1
COCCOc1cc(F)c2c(Nc3ccc(NC(=O)CC(=O)N[C@H]4C[C@@H](OC)C4)cc3)ncnc2c1 [Example 116]	–	–	0.1 to 1	0.01 to 0.1	–	0.1 to 1	0.1 to 1
COCCOc1cc(F)c2c(Nc3ccc(NC(=O)CC(=O)N[C@H]4C[C@H](OC)C4)cc3)ncnc2c1 [Example 117]	–	–	0.01 to 0.1	0.01 to 0.1	> 1	0.01 to 0.1	0.1 to 1
COCCOc1cc(F)c2c(Nc3ccc(NC(=O)CC(=O)NCC4CC5(CCC5)C4)cc3)ncnc2c1 [Example 118]	–	–	0.01 to 0.1	≤ 0.01	0.01 to 0.1	0.01 to 0.1	≤ 0.01
COCCOc1cc(F)c2c(Nc3ccc(NC(=O)CC(=O)NCCC(C)(C)F)cc3)ncnc2c1 [Example 119]	–	–	0.01 to 0.1	0.01 to 0.1	0.1 to 1	0.01 to 0.1	0.01 to 0.1
COCCCOc1cc(F)c2c(Nc3ccc(NC(=O)NCCC(C)(C)F)cc3)ncnc2c1 [Example 120]	–	–	0.01 to 0.1	≤ 0.01	0.1 to 1	0.01 to 0.1	≤ 0.01

Compound	IC50 (Ba/F3 KIT mutant cells; [1]) [µM]	IC50 (Ba/F3 KIT mutant cells; [2]) [µM]	IC50 (Ba/F3 KIT mutant cells; [3]) [µM]	IC50 (Ba/F3 KIT mutant cells; [4]) [µM]	IC50 (Ba/F3 KIT mutant cells; [5]) [µM]	IC50 (GIST 430 cells) [µM]	IC50 (c-KIT kinase (uKIT)) [µM]
COCCOc1cc(F)c2c(Nc3ccc(NC(=O)CC(=O)NC[C@@H]4CCCO4)cc3)ncnc2c1 [Example 121]	–	–	0.1 to 1	0.01 to 0.1	> 1	0.1 to 1	0.1 to 1
COCCOc1cc(F)c2c(Nc3ccc(NC(=O)N4CCC(C(C)(C)C)C4)cc3)ncnc2c1 (stereo not drawn) [Example 122]	–	–	0.1 to 1	0.01 to 0.1	> 1	0.1 to 1	0.01 to 0.1
CC(C)(F)CCNC(=O)Nc1ccc(Nc2ncnc3cc(OCC4CCOCC4)cc(F)c23)cc1 [Example 123]	–	–	0.01 to 0.1	≤ 0.01	0.01 to 0.1	0.01 to 0.1	≤ 0.01
COCCOc1cc(F)c2c(Nc3ccc(NC(=O)CC(=O)NC(C)(C)C)cc3)ncnc2c1 [Example 124]	–	–	0.01 to 0.1	0.01 to 0.1	0.1 to 1	0.01 to 0.1	0.01 to 0.1
COCCOc1cc(F)c2c(Nc3ccc(NC(=O)C(=O)NCCC(C)(C)C)cc3)ncnc2c1 [Example 125]	–	–	0.01 to 0.1	0.01 to 0.1	–	0.01 to 0.1	0.01 to 0.1
COCCOc1cc(F)c2c(Nc3ccc(NC(=O)C(=O)NCC(C)(C)C)cc3)ncnc2c1 [Example 126]	–	–	0.1 to 1	0.1 to 1	> 1	0.1 to 1	0.1 to 1
COCCOc1cc(F)c2c(Nc3ccc(NC(=O)CC(=O)NCC(F)(F)F)cc3)ncnc2c1 [Example 127]	–	–	0.01 to 0.1	0.01 to 0.1	> 1	0.01 to 0.1	0.01 to 0.1
COCCOc1cc(F)c2c(Nc3ccc(NC(=O)CC(=O)NC4(C(C)C)CC4)cc3)ncnc2c1 [Example 128]	–	–	0.01 to 0.1	≤ 0.01	0.1 to 1	0.01 to 0.1	0.01 to 0.1
COCCOc1cc(F)c2c(Nc3ccc(NC(=O)CC(=O)NC4(C(F)(F)F)CC4)cc3)ncnc2c1 [Example 129]	–	–	0.01 to 0.1	≤ 0.01	> 1	0.01 to 0.1	0.01 to 0.1
COCCOc1cc(F)c2c(Nc3ccc(NC(=O)CC(=O)NC(C)(C)C(F)(F)F)cc3)ncnc2c1 [Example 130]	≤ 0.01	0.01 to 0.1	0.01 to 0.1	≤ 0.01	0.01 to 0.1	0.01 to 0.1	0.01 to 0.1
COCCOc1cc(F)c2c(Nc3ccc(NC(=O)CC(=O)NC(C)(C)C4CC4)cc3)ncnc2c1 [Example 131]	≤ 0.01	0.01 to 0.1	0.01 to 0.1	≤ 0.01	0.01 to 0.1	0.01 to 0.1	0.01 to 0.1
COCCOc1cc(F)c2c(Nc3ccc(NC(=O)CC(=O)NCC4(C)COC4)cc3)ncnc2c1 [Example 132]	–	–	0.1 to 1	0.01 to 0.1	–	0.1 to 1	0.01 to 0.1
COCCOc1cc(F)c2c(Nc3ccc(NC(=O)NCC=C(C)C)cc3)ncnc2c1 [Example 133]	–	–	≤ 0.01	≤ 0.01	0.01 to 0.1	0.01 to 0.1	≤ 0.01
COCCOc1cc(F)c2c(Nc3ccc(NC(=O)CC(=O)NC4CC5(CCC5)C4)cc3)ncnc2c1 [Example 135]	–	–	≤ 0.01	≤ 0.01	0.01 to 0.1	≤ 0.01	≤ 0.01
COCCOc1cc(F)c2c(Nc3ccc(NC(=O)CC(=O)NCC4CC(C)(C)C4)cc3)ncnc2c1 [Example 136]	–	–	0.01 to 0.1	≤ 0.01	0.1 to 1	0.01 to 0.1	0.01 to 0.1

From patent publication US20240116877A1, “KIT KINASE INHIBITORS AND METHODS OF USE THEREOF” (Deciphera Pharmaceuticals, LLC, priority 2021, published 2024)
